Assays:
[1] = target: TRPV4 (mTRPV4) (Mus musculus, UniProt Q9EPK8, D682A); test: patch-clamp inhibition of GSK101-activated mutant channel; assay type: cell-based
[2] = target: TRPV4 (mTRPV4) (Mus musculus, UniProt Q9EPK8); test: cryo-EM structure with GSK101 also bound ([…] Å); patch-clamp inhibition IC50; assay type: cell-based
Sequence of TRPV4 (mTRPV4) (Mus musculus, UniProt Q9EPK8) (Q9EPK8 whole entry): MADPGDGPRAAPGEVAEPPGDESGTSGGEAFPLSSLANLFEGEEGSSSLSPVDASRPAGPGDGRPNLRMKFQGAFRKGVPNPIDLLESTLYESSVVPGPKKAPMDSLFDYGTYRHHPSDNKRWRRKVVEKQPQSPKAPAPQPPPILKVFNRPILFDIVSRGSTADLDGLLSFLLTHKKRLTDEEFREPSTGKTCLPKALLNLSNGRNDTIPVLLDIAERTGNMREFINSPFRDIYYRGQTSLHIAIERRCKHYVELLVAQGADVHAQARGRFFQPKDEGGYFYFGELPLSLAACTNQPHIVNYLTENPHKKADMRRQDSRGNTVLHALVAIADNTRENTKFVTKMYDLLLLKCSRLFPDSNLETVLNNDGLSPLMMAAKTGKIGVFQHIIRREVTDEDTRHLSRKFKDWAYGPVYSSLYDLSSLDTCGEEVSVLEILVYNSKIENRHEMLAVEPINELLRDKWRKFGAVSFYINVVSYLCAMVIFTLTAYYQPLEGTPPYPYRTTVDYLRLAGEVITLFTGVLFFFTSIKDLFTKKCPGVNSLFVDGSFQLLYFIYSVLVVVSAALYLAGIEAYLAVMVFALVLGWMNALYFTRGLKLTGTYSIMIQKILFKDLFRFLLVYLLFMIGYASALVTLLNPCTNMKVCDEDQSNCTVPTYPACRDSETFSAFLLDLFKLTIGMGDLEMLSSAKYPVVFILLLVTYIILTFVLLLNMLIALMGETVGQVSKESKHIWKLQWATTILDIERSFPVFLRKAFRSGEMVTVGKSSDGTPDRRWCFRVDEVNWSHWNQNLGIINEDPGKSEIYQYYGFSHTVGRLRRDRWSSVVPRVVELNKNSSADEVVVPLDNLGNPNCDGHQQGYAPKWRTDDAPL

Sequence of TRPV4 (mTRPV4) (Mus musculus, UniProt Q9EPK8, D682A) (Q9EPK8 whole entry D682A): as the sequence (Q9EPK8 whole entry) above, with D682A counted along it

In the case of `Cl.Cl.Cl.Cl.Cl.Cl.N.N.N.N.N.N.N.N.N.N.N.N.N.N.[O-2].[O-2].[Ru+3].[Ru+3].[Ru+4]` [ruthenium red], the IC50 [1] is reported as 15.6 ± 3.2 µM and the IC50 [2] is reported as 0.3 ± 0.1 µM.

— article PMC10333285, “Structural basis of ligand activation and inhibition in a mammalian TRPV4 ion channel” (Cell Discovery, 2023)
